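The compound was tested at five concentrations on cells cultured in 96-well plates, with a 48-hour exposure period. GI50 marks 50% less growth. Definition used: TGI = concentration required for complete inhibition of growth.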
What was measured:
Assay in all cases: inhibition of tumour cell growth, NCI panel, 48 h
[1] = tested on: CAKI-1 renal
[2] = tested on: K-562 leukemia
[3] = tested on: KM12 colon
[4] = tested on: MOLT-4 leukemia
[5] = tested on: OVCAR-3 ovarian
[6] = tested on: OVCAR-5 ovarian
[7] = tested on: RPMI-8226 leukemia
[8] = tested on: SK-MEL-2 melanoma
[9] = tested on: SK-MEL-5 melanoma
[10] = tested on: SN12C renal

Row | SMILES | TGI [1] [µM] | TGI [2] [µM] | TGI [3] [µM] | TGI [4] [µM] | TGI [5] [µM] | TGI [6] [µM] | TGI [7] [µM] | TGI [8] [µM] | TGI [9] [µM] | TGI [10] [µM] | GI50 [1] [µM] | GI50 [2] [µM] | GI50 [3] [µM] | GI50 [4] [µM] | GI50 [5] [µM] | GI50 [6] [µM] | GI50 [7] [µM] | GI50 [8] [µM] | GI50 [9] [µM] | GI50 [10] [µM]
1 | C/C(=N\NC(=S)N1CCC(N2CCCCC2)CC1)c1ccccn1 | 5.87 | > 100 | 9.53 | > 21 | 13.4 | 10.2 | > 29.4 | > 100 | 8.22 | 8.17 | – | – | – | – | – | – | – | – | – | –
2 | CCOC(=O)/C=C/c1c(C)[nH]c(=O)[nH]c1=O | > 234 | > 250 | > 250 | > 250 | > 250 | > 250 | > 250 | > 250 | > 250 | > 250 | – | – | – | – | – | – | – | – | – | –
3 | CCOC(=O)NC(Nc1cc(Cl)ccc1OC)(C(F)(F)F)C(F)(F)F | > 100 | > 100 | > 100 | > 100 | > 100 | > 100 | > 100 | > 100 | > 100 | > 100 | – | – | – | – | – | – | – | – | – | –
4 | CN=C(Nc1ccc(OC)c2ccccc12)SC | > 10 | > 10 | > 10 | > 10 | > 10 | > 10 | > 10 | – | > 10 | > 10 | – | – | – | – | – | – | – | – | – | –
5 | O=c1[nH]c(SCc2cccc([N+](=O)[O-])c2)nc2nc[nH]c12 | > 100 | > 100 | > 100 | > 100 | > 100 | > 100 | > 100 | > 100 | > 100 | > 100 | – | – | – | – | – | – | – | – | – | –
6 | O=c1nc2ccc([N+](=O)[O-])cc2[n+]([O-])[nH]1 | > 100 | > 100 | > 100 | > 100 | > 100 | > 100 | > 100 | > 100 | > 100 | > 100 | – | – | – | – | – | – | – | – | – | –
7 | c1ccc2c(c1)c1ccccc1n2Cn1c2ccccc2c2ccccc21 | > 100 | > 100 | > 100 | > 100 | > 100 | > 100 | > 100 | > 100 | > 100 | > 100 | – | – | – | – | – | – | – | – | – | –
8 | c1cc2c3c(c1)c1cc4c(cc1c[n+]3CC2)OCO4 | 120 | 32.3 | 27.8 | 9.96 | 16.2 | 24.9 | 14 | 9.35 | 9.08 | 9.01 | – | – | – | – | – | – | – | – | – | –
9 | COc1cc(-c2ccc(N=Nc3ccc4c(S(=O)(=O)O)cc(S(=O)(=O)O)c(N)c4c3O)c(OC)c2)ccc1N=Nc1ccc2c(S(=O)(=O)O)cc(S(=O)(=O)O)c(N)c2c1O | – | > 100 | > 100 | > 100 | > 100 | > 100 | > 100 | > 100 | > 100 | > 100 | – | – | – | – | – | – | – | – | – | –
10 | COc1cccc2c1C(=O)c1c(O)c3c(c(O)c1C2=O)C[C@@](O)(C(=O)COC(=O)c1ccccc1)C[C@@H]3OC1CC(N)C(O)C(C)O1 (some centres not stated) | 2.11 | 0.327 | 1.23 | 0.275 | 1.42 | 1.64 | 0.61 | 1.99 | 0.712 | 1.12 | 0.701 | 0.104 | 0.215 | 0.0302 | 0.369 | 0.4 | 0.193 | 0.563 | 0.2 | 0.0936
11 | C/C(=N\NC(=O)c1ccc(Cl)cc1)c1nc2ncccc2[nH]1 | > 100 | > 100 | > 100 | 90.6 | 81.5 | > 100 | > 100 | > 100 | 55.6 | > 100 | – | – | – | – | – | – | – | – | – | –
12 | O=C(/C=C1\Sc2ccccc2N=C1CC(=O)c1ccccc1)c1ccccc1 | 34.1 | 20 | 24.5 | 24.7 | 29.5 | 61.4 | 26.3 | 87.2 | 19 | 39.4 | – | – | – | – | – | – | – | – | – | –
13 | O=c1oc(-c2ccc(O)cc2)cc2cc(O)ccc12 | > 100 | 39.8 | 68 | 69.2 | > 100 | > 100 | > 100 | > 100 | 30.2 | 65.1 | – | – | – | – | – | – | – | – | – | –
14 | O=C(NN1C(=O)C(Cl)C1c1cccc([N+](=O)[O-])c1)c1ccccc1O (configuration not stated) | – | > 100 | > 100 | > 100 | > 100 | > 100 | > 100 | > 100 | > 100 | > 100 | – | – | – | – | – | – | – | – | – | –
15 | COc1ccc(C2=[S+]C(c3ccccc3)(c3ccccc3)c3ccccc32)cc1 | > 100 | > 100 | 31.1 | 61 | 43.6 | 49.5 | 53.9 | 33.3 | 31.5 | 37.1 | – | – | – | – | – | – | – | – | – | –
16 | O=C(N/N=C\c1cccc2ccccc12)Nc1ccccc1 | > 100 | > 100 | > 100 | > 100 | > 100 | > 100 | > 100 | > 100 | > 100 | > 100 | – | – | – | – | – | – | – | – | – | –
17 | c1ccc2c(c1)NCc1cc3ccccc3nc1O2 | > 100 | > 100 | > 100 | > 100 | > 100 | > 100 | > 100 | > 100 | > 100 | > 100 | – | – | – | – | – | – | – | – | – | –
18 | N#[N+]c1c([O-])c2ccccc2c2ccccc12 | > 100 | > 100 | > 100 | > 100 | > 100 | > 100 | > 100 | 93.4 | 35.4 | > 100 | – | – | – | – | – | – | – | – | – | –
19 | Cc1cn(-c2cccc(NC(=O)c3ccc(C)c(Nc4nccc(-c5cccnc5)n4)c3)c2)cn1 | 3.05 | 4.17 | 4.98 | 6.56 | 3.84 | 3.68 | 5.41 | 7.83 | 7.46 | 4.7 | 1.6 | 1.47 | 2.1 | 1.92 | 1.95 | 1.88 | 1.87 | 2.58 | 2.16 | 2.1
20 | Cc1ccc(Cl)cc1N=NC(=O)NNc1cc(Cl)ccc1C | 45.1 | > 100 | > 100 | > 100 | 37 | 32.7 | > 100 | 32.8 | 29.1 | 80.8 | – | – | – | – | – | – | – | – | – | –
21 | Cc1cc(N/N=C/c2nc(-c3ccc(Cl)cc3)oc2C)c2cc(Br)ccc2n1 | 4.71 | 3.61 | 5.43 | 13.5 | 3.89 | 21.9 | 4.81 | 32.2 | 23.9 | 4.38 | 2.04 | 1.1 | 2.21 | 2.66 | 1.96 | 10.1 | 1.95 | 17.5 | 11.7 | 2.05
22 | O=C1C(CO)=C[C@H](O)[C@H]2O[C@@H]12 | 514 | 439 | 219 | 355 | 406 | 346 | 332 | 345 | 389 | 265 | – | – | – | – | – | – | – | – | – | –
23 | O=C1CCC[C@H]2O[C@@H](COC(=O)c3ccccc3)C[C@H]2O1 | > 100 | > 100 | > 100 | > 100 | > 100 | > 100 | > 100 | > 100 | > 100 | > 100 | – | – | – | – | – | – | – | – | – | –

From PubChem BioAssay (NCI)
